From PMC8625693, “Synthesis and Structure-Activity Relationships of New 2-Phenoxybenzamides with Antiplasmodial Activity” (Pharmaceuticals, 2021)
Read-outs that look alike come from different tables or passages of the source.

Assays:
P. falciparum NF54 = assay: In vitro microplate assay against P. falciparum NF54 (3H-hypoxanthine incorporation, erythrocytic stages); assay type: cell-based, Plasmodium falciparum
Procedure: (§1) All newly synthesized compounds were tested for their antiplasmodial activity against the chloroquine-sensitive strain Plasmodium falciparum NF54. Cytotoxicity was determined using rat skeletal myofibroblasts (L-6 cells). As standards chloroquine and podophyllotoxin were used.
In vitro activity against erythrocytic stages of P. falciparum was determined with a ^3H-hypoxanthine incorporation assay, using the chloroquine sensitive NF54 strain [44]. Chloroquine (Sigma C6628) was used as standard. Test compounds were dissolved in DMSO at 10 mg/mL and added to parasite cultures incubated in RPMI 1640 medium without hypoxanthine, supplemented with HEPES (5.94 g/L, NaHCO3 (2.1 g/L), neomycin (100 U/mL), Albumax (5 g/L) and washed human red blood cells A^+ at 2.5% hematocrit (0.3% parasitemia). Serial drug dilutions of 11 3-fold dilution steps (covering a range from 100–0.002 µg/mL) were prepared. The 96-well plates were incubated at a humidified atmosphere at 37 °C; 4% CO2, 3% O2, 93% N2. After 48 h, 0.05 mL of ^3H-hypoxanthine (=0.5 µCi) was added to each well. The plates were incubated for another 24 h under the same conditions. Then, the plates were harvested with a Betaplate cell harvester (Wallac, Zurich, Switzerland). The red blood cells were transferred onto glass fiber filter and washed with distilled water. The dried filters were inserted into a plastic foil with 10 mL of scintillation fluid and counted in a Betaplate liquid scintillation counter. IC50 values were determined from sigmoidal inhibition curves by linear regression using Microsoft Excel. Chloroquine was used as control.

[1] = In vitro cytotoxicity with L-6 cells (Alamar Blue); assay type: cell-based, rat
Procedure: as §1
(§2) In vitro cytotoxicity was determined using a primary cell line of rat skeletal myofibroblasts. The assay was performed in 96-well microtiter plates, each well containing 0.1 mL of RPMI 1640 medium, supplemented with 0.1% L-glutamine (200 mM) and 10% fetal bovine serum, as well as 4000 L-6 cells. Serial drug dilutions of 11 3-fold dilution steps (covering a range from 100–0.002 µg/mL) were prepared. After 70 h of incubation time, the plates were inspected under an inverted microscope to ensure sterile conditions and growth of the controls. […] Podophyllotoxin (Sigma P4405) was used as control.

[2] = Parallel artificial membrane permeability assay (PAMPA); details: pH 7.4
Procedure: The PAMPA was performed using a Corning Gentest Pre-coated PAMPA Plate System at a pH of 7.4. It consists of 96-well polystyrene plates, whereas the donor-plate (bottom plate) is a conventional 96-well microtiter plate. The base of the acceptor-plate (top plate) consists of a porous membrane. The pores are lined with a lipid-oil-lipid trilayer. Stock solutions (10 mM) of each test compound were prepared in DMSO or MeOH and then further diluted to a final concentration of 200 µM with phosphate-buffered saline (PBS) at a pH of 7.4. Compound solutions were then added to the wells of the donor plate and pure PBS was added to each well of the acceptor plate. Compounds and negative control (pure PBS) were tested in quadruplicates. Donor and acceptor plate were coupled and incubated at ambient temperature for 5 h. After that, the plates were separated and solutions from each well of both plates were transferred onto 96-well UV-Star Microplates (Greiner Bio-One). The UV-absorption was measured at different wavelengths (between 200 and 300 nm) by a SpectraMax M3 UV plate reader (Molecular Devices). The concentrations were received from a calibration curve for each substance. The plates were analyzed at a wavelength were the R^2 value of the calibration curve was higher than 0.99 [48]. […] (2) cequ=cDt* VD+cAt* VA/VD+VA where: • cD(t)—compound concentration in donor well at time t.
Recovery of compounds from donor and acceptor wells (mass retention) was calculated as shown in the equation below. Data were only accepted when recovery exceeded 70%. (3) R=1−cDt∗ VD+cAt∗ VA/c0∗ VD where: • R—mass retention (%); • cA(t)—compound concentration in acceptor well at time t; • cD(t)—compound concentration in donor well at time t; • c0—initial compound concentration in donor well; • VD—donor well volume; • VA—acceptor well volume.

CYP3A4 = molecular target: T1, CYP3A4 (Homo sapiens, UniProt P08684); assay: Cytochrom P450 3A4 inhibition assay (P450-Glo, luciferin-IPA); assay type: in vitro ADME; details: recombinant human CYP3A4 Supersomes (+ oxidoreductase + b5), probe luciferin-IPA, stock solutions diluted to 20 µM, pH 7.4, triplicate
T1 construct: purchased Corning, Glendale, AZ, USA
T1 sequence (P08684 2-503 limits assumed): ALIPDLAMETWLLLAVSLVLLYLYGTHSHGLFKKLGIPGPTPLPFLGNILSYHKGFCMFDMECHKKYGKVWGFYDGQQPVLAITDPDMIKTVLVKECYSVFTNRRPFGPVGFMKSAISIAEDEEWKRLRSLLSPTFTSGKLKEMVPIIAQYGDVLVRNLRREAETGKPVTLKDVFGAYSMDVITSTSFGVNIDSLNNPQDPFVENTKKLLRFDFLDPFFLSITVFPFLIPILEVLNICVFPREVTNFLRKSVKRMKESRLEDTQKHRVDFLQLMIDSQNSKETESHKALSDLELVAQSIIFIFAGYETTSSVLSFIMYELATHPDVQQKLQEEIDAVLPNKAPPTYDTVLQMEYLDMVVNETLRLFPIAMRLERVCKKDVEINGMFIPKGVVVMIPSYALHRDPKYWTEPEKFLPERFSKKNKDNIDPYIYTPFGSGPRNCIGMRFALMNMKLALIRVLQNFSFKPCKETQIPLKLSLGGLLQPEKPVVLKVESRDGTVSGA
Procedure: The CYP3A4 inhibition assay was performed using 96-well White Plates (Greiner Bio-One) at a pH of 7.4. […] Stock solutions were further diluted to a final concentration of 20 µM using water (HPLC grade). The luciferin IPA stock solution (3 mM) was diluted to a final concentration of 0.3 mM using water (HPLC grade). The CYP3A4 reaction mixture was prepared by mixing water (HPLC grade) with potassium phosphate buffer (1 M), luciferin IPA (0.3 mM) and CYP3A4 membrane (1 pmol/µL). The control reaction mixture was prepared using water (HPLC grade), potassium phosphate buffer (1 M), luciferin IPA (0.3 mM) and membrane without CYP activity (1 pmol/µL). Solutions A and B of the NADPH regeneration system were mixed and HPLC grade water was added. The reconstituted luciferin detection reagent was prepared by mixing the reconstituted buffer with esterase with the luciferin detection reagent. Then, solutions of test compounds and standard were added to the wells of the 96-well White Plate, each was tested in triplicate. The CYP3A4 reaction mixture was added to each well and the plate was incubated for 10 min at room temperature. After that, the NADPH regeneration system was added, inducing the reaction followed by an incubation time of 10 min at ambient temperature. By adding the reconstituted luciferin detection reagent, the reaction was terminated, and a luminescent signal was formed. Luminescence was measured by a SpectraMax M3 UV plate reader (Molecular Devices). The relative light units (RLU) were received from a calibration curve with beetle luciferin. […] The CYP3A4 inhibition (%) was calculated from the RLU.

L-6 cells = assay: In vitro cytotoxicity with L-6 cells (Alamar Blue); assay type: cell-based, rat
Procedure: as §1, §2

[3] = Plasmodium falciparum, NF54, chloroquine-sensitive strain NF54, blood stages, average of four determinations, read-out: P.f. NF54 IC50
[4] = chloroquine-sensitive strain NF54, blood stages, average of four determinations, read-out: P.f. NF54 IC50
[5] = rat, Cytotoxicity L-6 Cells IC50
[6] = rat skeletal myofibroblasts, average of four determinations, read-out: Cytotoxicity L-6 Cells IC50

Structure (SMILES)	IC50 (P. falciparum NF54; [3])	IC50 (P. falciparum NF54; [4])	IC50 at 72 h [1, 5]	Papp at 5 h, 200 µM [2]	inhibition at 10 min, 20 µM (CYP3A4)	also measured
Nc1ccc(NC(=O)c2cccc(C(F)(F)F)c2Oc2ccc(F)cc2)cc1 [Compound 51, N-(4-Aminophenyl)-2-(4-fluorophenoxy)-3-(trifluoromethyl)benzamide]	51.5 to 51.9 µM	55.9 µM	130 µM	12.9 ×10⁻⁶ cm/s	88%	
NC(=O)N1CCN(c2ccccc2NC(=O)c2cccc(C(F)(F)F)c2Oc2ccc(F)cc2)CC1 [Compound 21, N-[2-(4-Carbamoylpiperazin-1-yl)phenyl]-2-(4-fluorophenoxy)-3-(trifluoromethyl)benzamide]			31.8 to 35.4 µM	7.44 ×10⁻⁶ cm/s		IC50 (L-6 cells; rat, 72 h): 35.4 µM
Nc1ccccc1NC(=O)c1cccc(C(F)(F)F)c1Oc1ccc(F)cc1 [Compound 14, N-(2-Aminophenyl)-2-(4-fluorophenoxy)-3-(trifluoromethyl)benzamide]			129 µM	11.4 ×10⁻⁶ cm/s		
CC(C)(C)C(=O)N1CCN(c2ccc(NC(=O)c3cccc(C(F)(F)F)c3Oc3ccccc3)cc2)CC1 [Compound 55, N-{4-[4-(2,2-Dimethylpropanoyl)piperazin-1-yl]phenyl}-2-phenoxy-3-(trifluoromethyl)benzamide]	4.66 µM		89.8 µM	11.2 ×10⁻⁶ cm/s	60%	
CC(C)(C)OC(=O)N1CCN(c2ccc(NC(=O)c3cccc(C(F)(F)F)c3Oc3ccc(F)cc3)cc2)CC1 [Compound 37, tert-Butyl-4-{4-[2-(4-fluorophenoxy)-3-(trifluoromethyl)benzamido]phenyl}piperazine-1-carboxylate]	0.269 µM		124 µM	0.09 ×10⁻⁶ cm/s	93%	
CCN(CC)CCCC(C)Nc1ccnc2cc(Cl)ccc12 (stereo not shown) [CQ, chloroquine, reference compound]						IC50 (P. falciparum NF54; Plasmodium falciparum, NF54, read-out: P.f. NF54 IC50): 0.009 µM; IC50 at 72 h [1, 6]: 90.9 µM
O=C(Nc1ccccc1)c1cccc(C(F)(F)F)c1Oc1ccc(F)cc1 [Compound 12, 2-(4-Fluorophenoxy)-N-phenyl-3-(trifluoromethyl)benzamide]	9.33 to 21.3 µM	9.33 µM	129 to 202 µM	10.1 ×10⁻⁶ cm/s		IC50 (L-6 cells; rat, 72 h): 202 µM
CC(=O)Nc1ccc(Oc2c(C(=O)Nc3ccccc3N3CCN(C(=O)OC(C)(C)C)CC3)cccc2C(F)(F)F)cc1 [Compound 8, tert-Butyl-4-{2-[2-(4-acetamidophenoxy)-3-(trifluoromethyl)benzamido]phenyl}piperazine-1-carboxylate]	1.01 to 1.15 µM	1.15 µM	73 µM	4.06 ×10⁻⁶ cm/s	99%	
CC(C)(C)OC(=O)Nc1ccccc1NC(=O)c1cccc(C(F)(F)F)c1Oc1ccc(F)cc1 [Compound 13, tert-Butyl-N-{2-[2-(4-fluorophenoxy)-3-(trifluoromethyl)benzamido]phenyl}carbamate]	1.9 µM			8.72 ×10⁻⁶ cm/s	90%	
CC(=O)N1CCN(c2ccccc2NC(=O)c2cccc(C(F)(F)F)c2Oc2ccc(F)cc2)CC1 [Compound 17, N-[2-(4-Acetylpiperazin-1-yl)phenyl]-2-(4-fluorophenoxy)-3-(trifluoromethyl)benzamide]	2.53 µM		27.1 µM	10.1 ×10⁻⁶ cm/s		
CC(C)(C)OC(=O)N1CCN(c2ccccc2NC(=O)c2cccc(C(F)(F)F)c2Oc2ccccc2)CC1 [Compound 6, tert-Butyl-4-{2-[2-phenoxy-3-(trifluoromethyl)benzamido]phenyl}piperazine-1-carboxylate]	1.01 to 1.15 µM	1.01 µM		3 ×10⁻⁶ cm/s	87%	IC50 at 72 h ([1]; rat, rat skeletal myofibroblasts, average of four determinations, read-out: Cytotoxicity L-6 Cells IC50): 128 µM
CC(C)(C)C(=O)N1CCN(c2ccccc2NC(=O)c2cccc(C(F)(F)F)c2Oc2ccccc2)CC1 [Compound 56, N-{2-[4-(2,2-Dimethylpropanoyl)piperazin-1-yl]phenyl}-2-phenoxy-3-(trifluoromethyl)benzamide]	0.617 to 0.659 µM	0.659 µM	185 to 190 µM	0.11 ×10⁻⁶ cm/s		IC50 (L-6 cells; rat, 72 h): 190 µM
Nc1cccc(NC(=O)c2cccc(C(F)(F)F)c2Oc2ccc(F)cc2)c1 [Compound 50, N-(3-Aminophenyl)-2-(4-fluorophenoxy)-3-(trifluoromethyl)benzamide]	51.5 to 51.9 µM	51.5 µM	104 µM	18.4 ×10⁻⁶ cm/s		
CC(C)(C)OC(=O)N1CCN(c2ccccc2NC(=O)c2cccc(C(F)(F)F)c2)CC1 [Compound 7, tert-Butyl-4-{2-[3-(trifluoromethyl)benzamido]phenyl}piperazine-1-carboxylate]	3.74 µM		113 µM	0.08 ×10⁻⁶ cm/s		
Cn1c(=O)c2c(ncn2C)n(C)c1=O [caffeine, reference compound]				8 ×10⁻⁶ cm/s		
CC(C)(C)OC(=O)N1CCN(c2cccc(NC(=O)c3cccc(C(F)(F)F)c3Oc3ccc(F)cc3)c2)CC1 [Compound 36, tert-Butyl-4-{3-[2-(4-fluorophenoxy)-3-(trifluoromethyl)benzamido]phenyl}piperazine-1-carboxylate]	3.3 µM		124 µM	6.17 ×10⁻⁶ cm/s	96%	
COc1cc([C@@H]2c3cc4c(cc3[C@H](O)[C@H]3COC(=O)[C@H]23)OCO4)cc(OC)c1OC [POD, podophyllotoxin, reference compound]						IC50 (L-6 cells; [6]): 0.012 µM
CN(C)C(=O)N1CCN(c2ccccc2NC(=O)c2cccc(C(F)(F)F)c2Oc2ccc(F)cc2)CC1 [Compound 22, N-{2-[4-(N,N-Dimethylcarbamoyl)piperazin-1-yl]phenyl}-2-(4-fluorophenoxy)-3-(trifluoromethyl)benzamide]	2.3 µM		20.2 µM			
